In PubChem BioAssay (NCI):
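Where inhibition never reached the appropriate level, the endpoint shown equals the highest concentration tested. Otherwise, values were interpolated linearly from a five-concentration, 48-hour dose response in 96-well plates. At the TGI there is no net growth.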

Assays:
Assay in all cases: NCI anticancer screen, dose series, 48 h
CCRF-CEM leukemia = tested on: CCRF-CEM leukemia
COLO 205 colon = tested on: COLO 205 colon
SK-MEL-2 melanoma = tested on: SK-MEL-2 melanoma
NCI-H460 lung = tested on: NCI-H460 lung
HCT-116 colon = tested on: HCT-116 colon
HL-60(TB) leukemia = tested on: HL-60(TB) leukemia
EKVX NSCLC = tested on: EKVX NSCLC
SNB-19 CNS = tested on: SNB-19 CNS
BT-549 breast = tested on: BT-549 breast
MDA-MB-231 breast = tested on: MDA-MB-231 breast

| SMILES | TGI (CCRF-CEM leukemia) | TGI (COLO 205 colon) | TGI (SK-MEL-2 melanoma) | TGI (NCI-H460 lung) | TGI (HCT-116 colon) | TGI (HL-60(TB) leukemia) | TGI (EKVX NSCLC) | TGI (SNB-19 CNS) | TGI (BT-549 breast) | TGI (MDA-MB-231 breast) |
| --- | --- | --- | --- | --- | --- | --- | --- | --- | --- | --- |
| CCCCN(C)/N=N/c1nc[nH]c1C(N)=O | > 100 µM | > 100 µM | > 100 µM | > 100 µM | > 100 µM | > 100 µM | > 100 µM | > 100 µM | – | – |
| CC(C)c1cc(C(C)C)c(S(=O)(=O)N=[N+]=[N-])c(C(C)C)c1 | > 100 µM | > 100 µM | – | > 100 µM | > 100 µM | > 100 µM | – | > 100 µM | – | – |
| COc1cc(Oc2nc3cc(F)c(F)cc3nc2-c2ccccc2)cc(OC)c1OC | > 100 µM | > 100 µM | > 100 µM | > 100 µM | > 100 µM | > 100 µM | > 100 µM | > 100 µM | > 100 µM | – |
| CSc1cnc2ccccc2c1Sc1c[nH]c2ccccc2c1=O | > 87.3 µM | 22.7 µM | 34.6 µM | 22.8 µM | 28.7 µM | 18 µM | > 45.8 µM | 65.4 µM | – | – |
| Clc1cc(Cl)ncn1 | > 100 µM | > 100 µM | – | > 100 µM | > 100 µM | – | – | > 100 µM | – | > 100 µM |
| Cc1c2ccncc2c(C)c2c1[nH]c1ccc(OCCN(C)C)cc12 | 1.3 µM | 1.3 µM | 1.87 µM | 0.0921 µM | 0.256 µM | – | 1.51 µM | 0.958 µM | – | – |
| CC(=O)OCC1OC(n2c(C)c(C)c(C)c(C#N)c2=S)C(OC(C)=O)C(OC(C)=O)C1OC(C)=O (centres undefined) | > 100 µM | > 100 µM | 78.2 µM | > 100 µM | 67.7 µM | > 100 µM | 94.3 µM | > 100 µM | – | > 100 µM |
| CCC(=O)OC1CCn2c1nc1c2C(=O)C(C)=C(NC(C)=O)C1=N (centres undefined) | – | 3.18 µM | 3.43 µM | 3 µM | 2.39 µM | – | 5.48 µM | 16.8 µM | – | – |
| CCN(CC)CC1CCCCN1CC(=O)N1CC(C)C(=O)Nc2ccccc21 (centres undefined) | > 100 µM | > 100 µM | – | > 100 µM | > 100 µM | > 100 µM | – | > 100 µM | – | – |
| Oc1ccc(Oc2cc3c(cc2Oc2ccc(O)cc2)-c2nc-3nc3[nH]c(nc4nc(nc5[nH]c(n2)c2cc(Oc6ccc(O)cc6)c(Oc6ccc(O)cc6)cc52)-c2cc(Oc5ccc(O)cc5)c(Oc5ccc(O)cc5)cc2-4)c2cc(Oc4ccc(O)cc4)c(Oc4ccc(O)cc4)cc32)cc1 | > 100 µM | > 100 µM | – | > 100 µM | > 100 µM | – | > 100 µM | > 100 µM | > 100 µM | 52.4 µM |
| CCOc1cc2c(cc1O)C(O)C[C@@H]1[C@@H]2CC[C@]2(C)[C@@H](O)CC[C@@H]12 (some centres undefined) | > 100 µM | 60.8 µM | > 100 µM | – | > 100 µM | – | > 100 µM | > 61.8 µM | > 100 µM | > 66 µM |
| CCOC(=O)CCC(C(=O)OCC)n1nnc2cc(Nc3c(C)[n+]([O-])c4cc(F)c(OCC)cc4[n+]3[O-])ccc21 (centres undefined) | > 100 µM | > 100 µM | > 100 µM | > 100 µM | > 100 µM | > 100 µM | > 100 µM | > 100 µM | > 100 µM | – |
| O=c1[nH]c(=O)n(C2OC(CO)C(O)C2O)cc1OCCCc1ccccc1 (centres undefined) | > 100 µM | > 100 µM | > 100 µM | > 100 µM | > 100 µM | > 100 µM | > 100 µM | > 100 µM | – | > 100 µM |
| S=C1SC(=Nc2ccccc2)C(=Nc2ccccc2)N1c1ccc2ccccc2c1 | > 100 µM | > 100 µM | > 100 µM | – | > 100 µM | > 100 µM | – | > 100 µM | > 100 µM | > 100 µM |
| COc1ccc(C)cc(=O)c1O | 72.5 µM | > 100 µM | > 100 µM | > 100 µM | > 100 µM | 61.5 µM | > 100 µM | > 100 µM | – | – |
| CC1(C)C=C(/C=N/Nc2ccccc2)C(C#N)=C(O)C1(C#N)C#N | > 100 µM | > 100 µM | – | > 100 µM | > 100 µM | > 100 µM | > 100 µM | > 100 µM | – | > 100 µM |
| COc1cc2c(c(OC)c1OC)-c1ccc(SC)c(=O)cc1[C@@H](NCc1ccc([N+](=O)[O-])cc1)CC2 | – | 0.0145 µM | 19 µM | – | – | 1.49 µM | > 100 µM | > 100 µM | – | – |
| O=C1C2C=CC(n3[nH]c(=O)n(Cc4ccccc4)c3=O)CC2C(=O)N1c1ccc(Br)cc1 (centres undefined) | > 100 µM | > 100 µM | > 100 µM | > 100 µM | > 100 µM | > 100 µM | > 100 µM | > 100 µM | – | – |
| N/C(=N\N=C\c1ncccc1O)NO | > 47.6 µM | > 39.8 µM | > 100 µM | > 100 µM | > 100 µM | > 26.5 µM | > 100 µM | 98.9 µM | – | – |
